In EP4745131A1, “PYRIMIDINAMINE NUAK INHIBITOR AS WELL AS PREPARATION METHOD THEREFOR AND USE THEREOF” (Technoderma Medicines Inc., priority 2023, dated 2025):

Columns and labels:
[1] = target: T1, NUAK1 (Homo sapiens, UniProt O60285); assay: Kinase activity assay, P81 filter paper binding hot-spot technique (33P-ATP, CHKtide substrate); type: biochemical; conditions: final concentration of NUAK1 10 nM; 20 µM CHKtide substrate; 33P-labeled ATP; 2 hours at room temperature; read-out: IC50 (nM) of Test Compounds against NUAK1
T1 sequence (O60285 1-661): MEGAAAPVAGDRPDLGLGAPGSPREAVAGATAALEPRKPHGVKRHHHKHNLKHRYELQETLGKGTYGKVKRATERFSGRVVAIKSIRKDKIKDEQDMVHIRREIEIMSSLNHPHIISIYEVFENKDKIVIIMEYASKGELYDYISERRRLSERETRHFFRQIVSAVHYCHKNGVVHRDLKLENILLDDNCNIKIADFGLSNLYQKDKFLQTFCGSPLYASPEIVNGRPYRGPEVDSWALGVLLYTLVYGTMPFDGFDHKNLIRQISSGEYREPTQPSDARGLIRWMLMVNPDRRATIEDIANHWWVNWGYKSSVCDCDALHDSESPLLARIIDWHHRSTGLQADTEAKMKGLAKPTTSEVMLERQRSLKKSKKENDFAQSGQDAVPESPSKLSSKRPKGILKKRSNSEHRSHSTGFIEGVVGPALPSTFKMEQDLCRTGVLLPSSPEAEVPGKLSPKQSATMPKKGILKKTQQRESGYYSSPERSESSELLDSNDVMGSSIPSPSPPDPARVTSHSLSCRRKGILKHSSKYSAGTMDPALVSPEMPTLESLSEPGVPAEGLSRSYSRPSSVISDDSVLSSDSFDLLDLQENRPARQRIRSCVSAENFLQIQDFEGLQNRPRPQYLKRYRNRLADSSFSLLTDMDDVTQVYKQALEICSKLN
Method: (§1) The inhibitory activity of the pyrimidinamine small molecules involved in the present application against NUAK1 and NUAK2 kinases was determined using a kinase activity assay based on the P81 filter paper binding hot-spot technique (Nat Biotechnol. 2011, 29:1039). A brief description is as follows:
(§2) The assay buffer system contained 20 mM Hepes (pH 7.5), 10 mM MgCl2, 1 mM EGTA, 0.01% Brij35 (L23 polyoxyethylene lauryl ether), 0.02 mg/mL BSA (bovine serum albumin), 0.1 mM Na3VO4, 2 mM DTT, and 1% DMSO.
(§3) • 1. A 20 µM substrate solution was prepared with freshly prepared test buffer and CHKtide peptide fragments (Sanchez Y. Science. 1997, 277: 1497-1501) were used as a substrate. • 2. Kinases were added and mixed gently (a final concentration of NUAK1 was 10 nM; and a final concentration of NUAK2 was 50 nM). • 3. Test compounds dissolved in 100% DMSO were each added to the above kinase reaction mixture solution via Acoustic Droplet Ejection (Echo550; nanoliter) and the mixture was incubated for 5 minutes at room temperature. • 4. ^33P-labeled ATP (a ratio of unlabeled ATP to labeled ATP was 25:1 or 2.5:1) was added. • 5. The mixture was incubated for 2 hours at room temperature. • 6. Kinase activity was tested using the P81 filter paper combined with hotspot technology.
(§4) The IC50 values of the test compounds against NUAK1/NUAK2 were calculated according to the above test. For specific results, see Table 1.
(§5) The IC50 values were calculated by using a formula derived from sigmoidal dose-response curve (variable slope): Y = Bottom + (Top-Bottom)/(1+10^((LogEC50-X)*Slope, where X is the logarithm of compound concentration, Y is the response (inhibition rate of kinase activity), and Y rises from bottom to top along the sigmoidal curve as the concentration increases. Table 1: IC50 (nM) of Test Compounds of the Present Application against NUAK1/NUAK2

[2] = target: T2, NUAK2 (Homo sapiens, UniProt Q9H093); assay: as above; type: biochemical; conditions: final concentration of NUAK2 50 nM; 20 µM CHKtide substrate; 33P-labeled ATP; 2 hours at room temperature; read-out: IC50 (nM) of Test Compounds against NUAK2
T2 sequence (Q9H093 1-628): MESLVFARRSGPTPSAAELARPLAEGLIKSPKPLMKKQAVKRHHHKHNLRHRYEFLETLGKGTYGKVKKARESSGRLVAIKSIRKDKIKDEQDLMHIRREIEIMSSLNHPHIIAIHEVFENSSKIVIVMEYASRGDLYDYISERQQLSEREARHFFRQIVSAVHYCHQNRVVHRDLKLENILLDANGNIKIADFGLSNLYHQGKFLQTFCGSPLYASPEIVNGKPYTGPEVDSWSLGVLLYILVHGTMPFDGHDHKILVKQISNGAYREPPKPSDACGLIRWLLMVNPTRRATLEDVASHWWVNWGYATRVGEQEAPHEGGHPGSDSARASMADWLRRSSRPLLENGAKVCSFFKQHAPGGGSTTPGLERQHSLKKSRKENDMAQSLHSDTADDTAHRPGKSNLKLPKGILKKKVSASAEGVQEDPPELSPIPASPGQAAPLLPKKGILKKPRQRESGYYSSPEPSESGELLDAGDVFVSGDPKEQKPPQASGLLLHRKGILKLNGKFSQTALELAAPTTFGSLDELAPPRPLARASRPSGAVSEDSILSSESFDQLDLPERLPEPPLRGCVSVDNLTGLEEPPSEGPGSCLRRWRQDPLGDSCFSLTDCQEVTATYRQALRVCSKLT
Method: as §1, §2, §3, §4, §5

Row | Compound | IC50 [1] [nM] | IC50 [2] [nM]
1 | 1-(5-chloro-2-((2-methoxy-4-(piperidin-4-yl)phenyl)amino)pyrimidin-4-yl)-N-(cyanomethyl)-1H-pyrrole-3-carboxamide [TDM-181157] | 194 | 487
2 | 2-(1-(piperidin-4-yl)-1H-pyrazol-4-yl)aminopyrimidin-4-yl)-1H-pyrazol-4-ylpropanesulfonamide [TDM-181135] | 34 | 265
3 | COc1cc(N2CCN(C)CC2)ccc1Nc1nccc(-n2cc(C(=O)NCC#N)cn2)n1 [TDM-181139, N-(Cyanomethyl)-1-(2-((2-methoxy-4-(4-methylpiperazin-1-yl)phenyl)amino)pyrimidin-4-yl)-1H-pyrazole-4-carboxamide] | 474 | 991
4 | N#CCNC(=O)c1cnn(-c2ccnc(Nc3cnn(C4CCNCC4)c3)n2)c1 [TDM-181140, N-(Cyanomethyl)-1-(2-((1-(piperidin-4-yl)-1H-pyrazol-4-yl)amino)pyrimidin-4-yl)-1H-pyrazole-4-carboxamide] | 305 | 210
5 | COc1cc(N2CCN(C)CC2)ccc1Nc1nccc(-n2ccc(C(=O)NCC#N)c2)n1 [TDM-181146, N-(Cyanomethyl)-1-(2-((2-methoxy-4-(4-methylpiperazin-1-yl)phenyl)amino)pyrimidin-4-yl)-1H-pyrrole-3-carboxamide] | 260 | 602
6 | COc1cc(C2CCNCC2)ccc1Nc1nccc(-n2ccc(C(=O)NCC#N)c2)n1 [TDM-181152, N-(Cyanomethyl)-1-(2-((2-methoxy-4-(piperidin-4-yl)phenyl)amino)pyrimidin-4-yl)-1H-pyrrole-3-carboxamide] | 977 | 
7 | N#CCNC(=O)c1ccn(-c2ccnc(Nc3ccc(C4CCNCC4)cc3)n2)c1 [TDM-181154, N-(cyanomethyl)-1-(2-((4-(piperidin-4-yl)phenyl)amino)pyrimidin-4-yl)-1H-pyrrole-3-carboxamide] | 58 | 239
8 | O=C(Nc1cnn(-c2ccnc(Nc3cnn(C4CCNCC4)c3)n2)c1)[C@@H]1CC1(F)F [TDM-181159, 2,2-Difluoro-N-(1-2-((1-(piperidin-4-yl)-1H-pyrazol-4-ylamino)pyrimidin-4-yl)-1H-pyrazol-4-yl)cyclopropane-1-carboxamide] | 337 | 419
9 | CNC(=O)c1ccn(-c2nc(Nc3ccc(N4CCN(C)CC4)cc3)ncc2Cl)c1 [TDM-181170, 1-(5-Chloro-2-((4-(4-methylpiperazin-1-yl)phenyl)amino)pyrimidin-4-yl)-N-methyl-1H-pyrrole-3-carboxamide] | 14 | 78
10 | CCCS(=O)(=O)Nc1cnn(-c2nc(Nc3cnn(C4CCNCC4)c3)ncc2Cl)c1 [TDM-181177, N-(1-(5-Chloro-2-(1-(piperidin-4-yl)-1H-pyrazol-4-ylamino)pyrimidin-4-yl)-1H-pyrazol-4-yl)propane-1-sulfonamide] | 9 | 72
11 | CCCS(=O)(=O)Nc1cnn(-c2nc(Nc3cnc(C4CCNCC4)s3)ncc2Cl)c1 [TDM-181179, N-(1-(5-Chloro-2-((2-(piperidin-4-yl)thiazol-5-yl)amino)pyrimidin-4-yl)-1H-pyrazol-4-yl)propane-1-sulfonamide] | 6 | 42

Continued by falling IC50 [1], values first:

Row | IC50 [1] [nM] | IC50 [2] [nM] | Compound
12 | 607 |  | COc1cc(C2CCN(C)CC2)ccc1Nc1nccc(-n2ccc(C(=O)NCC#N)c2)n1 [TDM-181156, N-(cyanomethyl)-1-(2-((2-methoxy-4-(1-methylpiperidin-4-yl)phenyl)amino)pyrimidin-4-yl)-1H-pyrrole-3-carboxamide]
13 | 394 |  | COc1cc(C2CCN(C)C2)ccc1Nc1nccc(-n2ccc(C(=O)NCC#N)c2)n1 (centres unmarked) [TDM-181158]
14 | 209 | 495 | CN1CCC(n2cc(Nc3nccc(-c4cnn(C(=O)C5CC5)c4)n3)cn2)CC1 [TDM-181169, Cyclopropyl(4-(2-((1-(1-methylpiperidin-4-yl)-1H-pyrazol-4-yl)amino)pyrimidin-4-yl)-1H-pyrazol-1-yl)methanone]
15 | 122 | 622 | CCS(=O)(=O)N1CCC(n2cc(-c3ccnc(Nc4cnn(C5CCNCC5)c4)n3)cn2)C1 (centres unmarked) [TDM-181134, 4-(1-(1-(Ethylsulfonyl)pyrrolidin-3-yl)-1H-pyrazol-4-yl)-N-(1-(piperidin-4-yl)-1H-pyrazol-4-yl)pyrimidin-2-amine]
16 | 84 | 107 | N#CCNC(=O)c1ccn(-c2ccnc(Nc3cnn(C4CCNCC4)c3)n2)c1 [TDM-181153, N-(Cyanomethyl)-1-(2-((1-(piperidin-4-yl)-1H-pyrazol-4-yl)amino)pyrimidin-4-yl)-1H-pyrrole-3-carboxamide]
17 | 43 | 69 | COc1cc(N2CCN(C)CC2)ccc1Nc1ncc(Cl)c(-n2ccc(C(=O)NCC#N)c2)n1 [TDM-181155, 1-(5-Chloro-2-((2-methoxy-4-(4-methylpiperazin-1-yl)phenyl)amino)pyrimidin-4-yl)-N-(cyanomethyl)-1H-pyrrole-3-carboxamide]
18 | 19 | 77 | CN1CCN(c2ccc(Nc3nccc(-n4ccc(C(=O)NCC#N)c4)n3)cc2)CC1 [TDM-181147, N-(Cyanomethyl)-1-(2-((4-(4-methylpiperazin-1-yl)phenyl)amino)pyrimidin-4-yl)-1H-pyrrole-3-carboxamide]
19 | 9 | 50 | CN1CCN(c2ccc(Nc3ncc(Cl)c(-n4ccc(C(=O)NCC5CC5)c4)n3)cc2)CC1 [TDM-181171, 1-(5-Chloro-2-((4-(4-methylpiperazin-1-yl)phenyl)amino)pyrimidin-4-yl)-N-(cyclopropylmethyl)-1H-pyrrole-3-carboxamide]
